From patent publication US10251867B2, “Dosing regimen for a selective S1P1 receptor agonist” (ACTELION PHARMACEUTICALS LTD, priority 2008, dated 2019)
Like-named read-outs stand apart in the source and are kept apart here. Blank lines part the entries; values can stand above or below the compound they belong to.

Key:
[1] = system: multiple sclerosis patients; conditions: cited from earlier work
[2] = system: humans; conditions: cited from earlier work
[3] = system: healthy male subjects; assay: Single-ascending dose (SAD) study AC-058-101, heart rate; type: in vivo, human; conditions: without up-titration; 50 mg SAD, Day 1
Protocol: In the single-ascending dose (SAD) study (AC-058-101), Compound 1 was administered orally to 6 groups of […] (aged 21-47 years). Doses of 1, 3, 8, 20, 50 and 75 mg were given to sequential groups of 8 subjects (6 on active drug and 2 on placebo) in a randomized, double-blind, placebo-controlled design. The dose of 20 mg was given once in the fasted and once in the fed condition, to assess any food effects on the pharmacokinetics of Compound 1. ECGs were recorded, clinical laboratory parameters, vital signs, pulmonary function, neurological assessments (in the 75-mg dose group), plasma levels of Compound 1, and peripheral lymphocyte counts (total and subsets) were determined. All 48 randomized subjects were evaluable and no subjects withdrew or discontinued from the study. All subjects treated with Compound 1 (n=36) were included in the pharmacokinetic (PK) and pharmacodynamic (PD) analysis.

[4] = system: humans; type: in vivo, human
Text: All of these effects wane with repeated dosing. […] The acute effects on heart rate, atrioventricular conduction, or fatigue and dizziness, although not seriously adverse, are undesirable, and methods to minimize these effects would be valuable for maximizing the tolerability and safety of Compound 1, and other selective S1P1 receptor agonists, and minimizing associated monitoring requirements, in the early phase of dosing initiation, or, after a drug interruption, at re-initiation of drug therapy.
Desensitization has been sustained over this 24-hour dosing interval. […] Desensitization has not been sustained over this 7-day dosing interval of the 20-mg dose. […]

[5] = system: subjects; assay: MAD study AC-058-102 Part B, up-titration scheme (10/20/40 mg), heart rate and ECG; type: in vivo, human; conditions: for Mean HR reduction (2.5 h post-dose vs pre-dose): with up-titration, Part B 40-mg dose group
Protocol: In Part B of the MAD study, an up-titration scheme was implemented in order to reduce first-dose effects of Compound 1 on sinus node automaticity and atrioventricular- (AV-) conduction. Treatment with Compound 1 started for 4 days with 10 mg once daily, followed by 4 days with 20 mg once daily, and 7 days with 40 mg once daily. Seventeen subjects (nine females and eight males, aged 18-43 years) were randomized. Thirteen subjects received active treatment and four subjects received matching placebo. A total of 15 out of the 17 subjects completed the study as scheduled. […] The 11 subjects treated with 40-mg Compound 1 who completed the study were included in the PK analysis of Compound 1.

[6] = system: healthy male and female subjects; assay: Multiple-ascending dose (MAD) study AC-058-102 Part A, heart rate without up-titration; type: in vivo, human; conditions: Day 1, Part A
Protocol: In Part A of the multiple-ascending dose (MAD) study (AC-058-102), Compound 1 was administered orally with doses of 5, 10, and 20 mg once-daily for 7 days to healthy male and female subjects (aged 22-58 years, 1:1 sex ratio) in a randomized, double-blind, placebo-controlled design. At each dose level, a group of 10 subjects were randomized to Compound 1 (8), or placebo (2). In Part A, all 30 randomized subjects completed the study and the 24 subjects who were treated with Compound 1 were included in the PK analysis.

Compound: CCCCCCCCc1ccc(CCC(N)(CO)CO)cc1 [FTY720]
Rate of clinical relapses [1]: reduce the rate of clinical relapses
Effect on heart rate [2]: reduces heart rate in humans

Fatigue or dizziness ([4]; in vivo): Occasional fatigue or dizziness
Compound: CCC/N=C1\S/C(=C\c2ccc(OC[C@H](O)CO)c(Cl)c2)C(=O)N1c1ccccc1C [Compound 1, (R)-5-[3-chloro-4-(2,3-dihydroxy-propoxy)-benz[Z]ylidene]-2-([Z]-propylimino)-3-o-tolyl-thiazolidin-4-one]
Mean HR reduction (2.5 h post-dose vs baseline) [3]: 18 bpm
Acute effects on heart rate and rhythm and fatigue/dizziness, dose comparison ([4]; in vivo): milder at 10 mg than at 20 mg
Effect on heart rate ([4]; in vivo): transiently reduces heart rate
Heart rhythm ([4]; in vivo): irregular heart rhythm (so-called Wenckebach rhythm)
PR interval in the electrocardiogram (ECG) ([4]; in vivo): transient increases in the PR interval
Time of maximal heart rate effect after administration ([4]; in vivo): 1 to 3 h
Acute heart rate reduction ([4]; in vivo, po): results in an acute heart rate reduction on Day 1
Acute heart rate reduction compared to the pre-dose value ([4]; in vivo, po): no longer observed
Number of peripheral blood lymphocytes ([4]; repeated daily oral dosing of 5 mg or more): consistent, sustained, and dose-dependent reduction in the number of peripheral blood lymphocytes
Second or third degree AV-blocks ([5]; Part B): No second or third degree AV-blocks were observed
Effects on other ECG variables ([5]; Part B, multiple dosing): No relevant effects on other ECG variables were recorded
Discontinuation of dosing due to adverse events ([5]; Part B, 13 subjects on active treatment): Dosing was discontinued in two subjects on active treatment due to adverse events
AV-block first degree ([5]; Part B, after first 10 mg dose on Day 1): only one subject reported a transient AV-block first degree
Mean HR reduction at 2.5 h post-dose vs pre-dose ([5]; Part B, day 2 (10 mg)): 2 bpm
Mean HR reduction at 2.5 h post-dose vs pre-dose ([5]; Part B, day 3 (10 mg)): 1 bpm
Mean HR reduction at 2.5 h post-dose vs pre-dose ([5]; Part B, day 4 (10 mg)): 1 bpm
Mean HR reduction at 2.5 h post-dose vs pre-dose ([5]; Part B, day 6 (20 mg)): 4 bpm
Mean HR reduction at 2.5 h post-dose vs pre-dose ([5]; Part B, day 7 (20 mg)): 3 bpm
Mean HR reduction at 2.5 h post-dose vs pre-dose ([5]; Part B, day 8 (20 mg)): 3 bpm
Mean HR reduction (2.5 h post-dose vs pre-dose) ([5]; 10 mg, Day 1): 14 bpm
Mean HR reduction (2.5 h post-dose vs pre-dose) ([5]; 20 mg, Day 5): 9 bpm
Mean HR reduction (2.5 h post-dose vs pre-dose) ([5]; 40 mg, Day 9): 4 bpm
Mean HR reduction (2.5 h post-dose vs baseline) ([6]; 10 mg): 14 bpm
Mean HR reduction (2.5 h post-dose vs baseline) ([6]; 20 mg): 22 bpm
